The target in assay [1] is T1, RGS7/Gβ5/R7BP complex (Homo sapiens, UniProt P49802).
T1 sequence (P49802 1-495): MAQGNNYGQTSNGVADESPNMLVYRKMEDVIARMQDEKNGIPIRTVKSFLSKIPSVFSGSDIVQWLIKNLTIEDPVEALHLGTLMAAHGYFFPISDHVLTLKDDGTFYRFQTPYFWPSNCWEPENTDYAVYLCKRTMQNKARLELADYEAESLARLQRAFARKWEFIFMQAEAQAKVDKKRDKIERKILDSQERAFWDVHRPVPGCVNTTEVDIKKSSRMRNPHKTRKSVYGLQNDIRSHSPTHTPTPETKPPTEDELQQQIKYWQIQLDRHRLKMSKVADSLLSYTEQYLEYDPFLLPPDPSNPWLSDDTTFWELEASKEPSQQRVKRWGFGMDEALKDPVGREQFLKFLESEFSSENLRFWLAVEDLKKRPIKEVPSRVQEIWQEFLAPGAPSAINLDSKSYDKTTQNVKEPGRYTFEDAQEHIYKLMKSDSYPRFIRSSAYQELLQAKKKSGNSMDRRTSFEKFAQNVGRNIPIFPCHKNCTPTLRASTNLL
T1 sequence (O14775 43-395 partner limits assumed): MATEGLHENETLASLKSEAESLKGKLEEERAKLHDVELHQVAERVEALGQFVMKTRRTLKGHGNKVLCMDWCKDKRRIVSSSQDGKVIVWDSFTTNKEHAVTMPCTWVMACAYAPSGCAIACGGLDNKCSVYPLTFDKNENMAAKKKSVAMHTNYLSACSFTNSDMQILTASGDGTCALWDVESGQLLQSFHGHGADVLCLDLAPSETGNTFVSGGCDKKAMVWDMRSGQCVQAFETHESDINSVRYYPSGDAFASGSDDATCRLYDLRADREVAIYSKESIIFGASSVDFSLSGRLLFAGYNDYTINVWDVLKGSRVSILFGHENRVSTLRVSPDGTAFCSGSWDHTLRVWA
As to the kind of experiment: TR-FRET assay of RGS7/Gβ5 interaction with R7BP, activators mode. It is filed as binding. A general note: In TR-FRET formats the signal depends on donor and acceptor labels being close together.

In assay [2] the target is T1, RGS7/Gβ5/R7BP complex. Put plainly: TR-FRET assay of RGS7/Gβ5 interaction with R7BP, inhibitors mode. The class given is binding.

Read-outs that look alike come from different tables or passages of the source.

The term EC50 denotes the concentration at which the effect is half-maximal. Read a low EC50 as greater potency. `NC(=O)c1cc([N+](=O)[O-])cc([N+](=O)[O-])c1` [nitromide]: the response in assay [1] was half-maximal at 760 ± 100 nM (EC50).
What is called IC50 is the point on the concentration scale where inhibition reaches its midpoint. For `O=C1CCCN1C(=S)C(=S)N1CCCC1=O` [SR-01000319258–1, 1-[2-(2-oxopyrrolidin-1-yl)-2-sulfanylideneethanethioyl]pyrrolidin-2-one], 173 nM corresponded to half-maximal inhibition in assay [2] (IC50). The compound also came in with a maximum inhibition in assay [2] (tertiary screening, first HTS campaign, concentration response curves) of 54.2 ± 0.84%.
Take `NCCc1cc(O)c(O)cc1O` [6-hydroxydopamine]: the IC50 in assay [2] (IC50, inhibition of complex formation, initial dose response studies) came to 7650 ± 3740 nM.

The values are drawn from paper PMC8552049 (SLAS discovery : advancing life sciences R & D, 2021).
